Laboratory results taken from patent publication US10660877B2 (BRISTOL-MYERS SQUIBB COMPANY, priority 2016, dated 2020).
Where two headings read alike, the source gives them in different places.

Experiments:
human TLR8 = human TLR8 (Homo sapiens (Human), UniProt Q9NR97); test: TLR8 inhibition reporter assay (HEK-Blue cells, SEAP reporter, R848 stimulation);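 also: compounds tested from 0.05 nM to 50 µM, 22 h at 37 °C, SEAP measured with HEK-Blue Detection, inhibition relative to agonist plus DMSO versus a known inhibitor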
human TLR8, sequence (Q9NR97 27-1041): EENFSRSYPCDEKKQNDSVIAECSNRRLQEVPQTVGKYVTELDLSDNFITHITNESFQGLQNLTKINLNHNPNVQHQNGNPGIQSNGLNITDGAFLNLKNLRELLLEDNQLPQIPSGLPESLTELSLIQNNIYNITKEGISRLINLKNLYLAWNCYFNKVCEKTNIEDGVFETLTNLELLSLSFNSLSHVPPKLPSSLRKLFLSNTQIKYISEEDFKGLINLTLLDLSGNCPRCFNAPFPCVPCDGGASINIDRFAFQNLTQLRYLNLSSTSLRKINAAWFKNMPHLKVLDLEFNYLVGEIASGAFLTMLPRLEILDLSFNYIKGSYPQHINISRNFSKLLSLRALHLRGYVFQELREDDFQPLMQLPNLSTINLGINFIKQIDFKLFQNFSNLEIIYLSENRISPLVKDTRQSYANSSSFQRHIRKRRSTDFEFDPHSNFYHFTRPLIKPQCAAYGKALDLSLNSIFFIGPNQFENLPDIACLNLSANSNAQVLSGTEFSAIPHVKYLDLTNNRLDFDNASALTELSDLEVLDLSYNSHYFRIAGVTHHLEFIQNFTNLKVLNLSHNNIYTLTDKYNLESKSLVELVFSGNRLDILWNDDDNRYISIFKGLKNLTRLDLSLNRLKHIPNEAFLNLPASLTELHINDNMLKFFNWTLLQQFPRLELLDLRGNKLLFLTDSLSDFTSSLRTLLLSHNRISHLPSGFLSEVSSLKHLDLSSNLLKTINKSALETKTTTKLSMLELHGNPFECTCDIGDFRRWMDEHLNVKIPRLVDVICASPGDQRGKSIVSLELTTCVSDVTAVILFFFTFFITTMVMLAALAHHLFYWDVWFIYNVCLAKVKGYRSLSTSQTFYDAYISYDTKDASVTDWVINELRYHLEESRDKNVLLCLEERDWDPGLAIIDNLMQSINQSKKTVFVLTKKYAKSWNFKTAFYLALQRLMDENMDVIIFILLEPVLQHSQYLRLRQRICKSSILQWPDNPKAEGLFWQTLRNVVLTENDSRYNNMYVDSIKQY

human TLR7 = human TLR7 (Homo sapiens (Human), UniProt Q9NYK1); test: TLR7 inhibition reporter assay (HEK-Blue cells, SEAP reporter, gardiquimod stimulation); format: cell-based
human TLR7, sequence (Q9NYK1 27-1049): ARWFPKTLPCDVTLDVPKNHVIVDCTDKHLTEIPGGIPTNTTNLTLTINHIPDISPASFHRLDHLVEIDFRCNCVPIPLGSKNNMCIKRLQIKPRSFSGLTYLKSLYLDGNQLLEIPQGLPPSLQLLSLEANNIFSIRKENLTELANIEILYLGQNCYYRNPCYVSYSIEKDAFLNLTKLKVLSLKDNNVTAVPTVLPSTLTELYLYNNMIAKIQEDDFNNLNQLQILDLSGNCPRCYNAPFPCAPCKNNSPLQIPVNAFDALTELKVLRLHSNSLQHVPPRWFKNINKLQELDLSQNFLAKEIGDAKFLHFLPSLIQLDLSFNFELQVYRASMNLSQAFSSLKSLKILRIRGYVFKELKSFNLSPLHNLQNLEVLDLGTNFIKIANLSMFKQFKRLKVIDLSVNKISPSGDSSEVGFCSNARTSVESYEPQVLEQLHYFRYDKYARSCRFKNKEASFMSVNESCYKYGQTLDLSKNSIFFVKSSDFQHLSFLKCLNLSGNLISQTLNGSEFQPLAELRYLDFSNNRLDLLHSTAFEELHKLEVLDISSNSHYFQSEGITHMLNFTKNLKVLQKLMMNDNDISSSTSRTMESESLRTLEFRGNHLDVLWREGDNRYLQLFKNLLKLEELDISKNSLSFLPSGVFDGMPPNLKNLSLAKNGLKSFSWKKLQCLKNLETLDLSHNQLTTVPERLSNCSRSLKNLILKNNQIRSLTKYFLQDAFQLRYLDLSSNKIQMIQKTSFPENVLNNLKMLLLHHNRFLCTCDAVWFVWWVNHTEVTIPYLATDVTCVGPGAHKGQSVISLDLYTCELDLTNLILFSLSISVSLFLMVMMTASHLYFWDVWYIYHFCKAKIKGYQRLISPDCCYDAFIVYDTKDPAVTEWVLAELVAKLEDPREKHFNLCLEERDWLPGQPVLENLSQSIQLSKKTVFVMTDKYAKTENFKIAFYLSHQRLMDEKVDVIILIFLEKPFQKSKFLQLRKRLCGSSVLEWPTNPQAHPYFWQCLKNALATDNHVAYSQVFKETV

human TLR9 = human TLR9 (Homo sapiens (Human), UniProt Q9NR96); test: TLR9 inhibition reporter assay (HEK-Blue cells, SEAP reporter, ODN2006 stimulation);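 also: compounds tested over 0.05 nM to 50 µM, 22 h incubation, inhibition taken as SEAP signal drop from agonist plus DMSO wells toward a known inhibitor control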
human TLR9, sequence (Q9NR96 26-1032): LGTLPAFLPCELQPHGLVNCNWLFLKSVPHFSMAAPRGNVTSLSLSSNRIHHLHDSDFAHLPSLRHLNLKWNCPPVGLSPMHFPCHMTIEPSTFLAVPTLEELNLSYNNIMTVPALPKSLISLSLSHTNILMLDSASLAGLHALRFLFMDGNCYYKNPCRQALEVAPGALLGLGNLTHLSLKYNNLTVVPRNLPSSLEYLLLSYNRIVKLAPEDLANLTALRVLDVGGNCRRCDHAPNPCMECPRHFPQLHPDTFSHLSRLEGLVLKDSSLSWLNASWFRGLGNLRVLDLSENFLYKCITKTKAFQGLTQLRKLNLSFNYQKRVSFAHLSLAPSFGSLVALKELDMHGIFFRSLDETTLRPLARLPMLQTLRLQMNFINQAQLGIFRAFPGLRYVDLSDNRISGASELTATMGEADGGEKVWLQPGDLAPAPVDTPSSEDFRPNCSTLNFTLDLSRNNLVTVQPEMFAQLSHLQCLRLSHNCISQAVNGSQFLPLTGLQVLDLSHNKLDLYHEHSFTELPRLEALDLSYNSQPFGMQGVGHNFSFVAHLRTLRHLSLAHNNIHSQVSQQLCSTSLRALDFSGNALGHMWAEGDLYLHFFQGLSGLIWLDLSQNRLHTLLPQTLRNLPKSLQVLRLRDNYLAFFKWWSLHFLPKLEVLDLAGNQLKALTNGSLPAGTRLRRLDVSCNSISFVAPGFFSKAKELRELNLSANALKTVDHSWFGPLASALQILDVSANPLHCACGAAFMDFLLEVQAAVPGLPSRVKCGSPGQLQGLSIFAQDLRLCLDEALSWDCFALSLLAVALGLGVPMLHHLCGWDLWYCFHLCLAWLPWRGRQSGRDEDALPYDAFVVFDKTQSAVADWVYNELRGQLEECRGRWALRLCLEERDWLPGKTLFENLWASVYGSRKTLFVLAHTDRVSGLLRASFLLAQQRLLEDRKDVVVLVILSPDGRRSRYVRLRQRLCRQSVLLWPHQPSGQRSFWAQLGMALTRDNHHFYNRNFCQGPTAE

[1] = read-out: TLR8 IC50, HEK-Blue cells overexpressing human TLR8, R848 15.9 μM
[2] = HEK-Blue cells overexpressing human TLR7, gardiquimod 7.5 μM
[3] = read-out: TLR9 IC50, HEK-Blue cells overexpressing human TLR9, ODN2006 5 nM

Structure (SMILES)	IC50 (human TLR8; [1]) [nM]	IC50 (human TLR7; [2]) [nM]	IC50 (human TLR9; [3]) [nM]	IC50 (human TLR8; read-out: TLR8 IC50, HEK-Blue cells, R848 15.9 μM) [nM]	IC50 (human TLR7; HEK-Blue cells, gardiquimod 7.5 μM) [nM]	IC50 (human TLR9; read-out: TLR9 IC50, HEK-Blue cells, ODN2006 5 nM) [nM]
Cc1cc(-c2[nH]c3ccc(C4CCN(S(=O)(=O)CC(F)(F)F)CC4)cc3c2C(C)C)ccn1 [Example 546, 3-isopropyl-2-(2-methylpyridin-4-yl)-5-(1-((2,2,2-trifluoroethyl)sulfonyl)piperidin-4-yl)-1H-indole]	820	164	> 50000	–	–	–
Cc1cc(-c2[nH]c3ccc(C4CCN(C(=O)CN5CCCC(F)(F)C5)CC4)cc3c2C(C)C)cc(C)n1 [Example 390, 2-(3,3-difluoropiperidin-1-yl)-1-(4-(2-(2,6-dimethylpyridin-4-yl)-3-isopropyl-1H-indol-5-yl)piperidin-1-yl)ethan-1-one]	191	17.9	25800	–	–	–
Cc1cc(-c2[nH]c3ccc(C4CCN(C(=O)CN5CCCS5(=O)=O)CC4)cc3c2C(C)C)cc(C)n1 [Example 152, 1-(4-(2-(2,6-dimethylpyridin-4-yl)-3-isopropyl-1H-indol-5-yl)piperidin-1-yl)-2-(1,1-dioxidoisothiazolidin-2-yl)ethan-1-one]	49.8	5	30400	–	–	–
Cc1cc(-c2[nH]c3ccc(C4CCN(C(=O)CC#N)CC4)cc3c2C(C)C)ccn1 [Example 616, 3-(4-(3-isopropyl-2-(2-methylpyridin-4-yl)-1H-indol-5-yl)piperidin-1-yl)-3-oxopropanenitrile]	121	33.7	32900	–	–	–
Cc1cc(-c2[nH]c3ccc(C4CCN(C(=O)CN5CC6CCC(C5)O6)CC4)cc3c2C(C)C)cc(C)n1 [Example 389, 2-(8-oxa-3-azabicyclo[3.2.1]octan-3-yl)-1-(4-(2-(2,6-dimethylpyridin-4-yl)-3-isopropyl-1H-indol-5-yl)piperidin-1-yl)ethan-1-one]	31.3	10.3	880	–	–	–
CCC(CC)N1CCC(c2ccc3[nH]c(-c4cc(C)nc(C)c4)c(C(C)C)c3c2)CC1 [Example 436, 2-(2,6-dimethylpyridin-4-yl)-3-isopropyl-5-(1-(pentan-3-yl)piperidin-4-yl)-1H-indole]	4.7	4.5	94	–	–	–
Cc1cc(-c2[nH]c3ccc(C4CCN(C(=O)CN5CCNC(=O)C5)CC4)cc3c2C(C)C)cc(C)n1 [Example 379, 4-(2-(4-(2-(2,6-dimethylpyridin-4-yl)-3-isopropyl-1H-indol-5-yl)piperidin-1-yl)-2-oxoethyl) piperazin-2-one]	55.2	7.7	3920	–	–	–
Cc1cc(-c2[nH]c3ccc(C4CCN(C(=O)C(F)(F)F)CC4)cc3c2C(C)C)ccn1 [Example 614, 2,2,2-trifluoro-1-(4-(3-isopropyl-2-(2-methylpyridin-4-yl)-1H-indol-5-yl)piperidin-1-yl)ethan-1-one]	469	119	17500	–	–	–
Cc1cc(-c2[nH]c3ccc(C4CCN(C(=O)C5CCN(C)C(=O)C5)CC4)cc3c2C(C)C)ccn1 (stereo not drawn) [Example 607, 4-(4-(3-isopropyl-2-(2-methylpyridin-4-yl)-1H-indol-5-yl)piperidine-1-carbonyl)-1-methylpiperidin-2-one]	186	94	> 50000	–	–	–
Cc1cc(-c2[nH]c3ccc(C4CCN(CC(=O)N(C)C)CC4)cc3c2CC(F)F)cc(C)n1 [Example 531, 2-(4-(3-(2,2-difluoroethyl)-2-(2,6-dimethylpyridin-4-yl)-1H-indol-5-yl)piperidin-1-yl)-N,N-dimethylacetamide]	63.9	15.7	221	–	–	–
Cc1ncc(CN2CCC(c3ccc4[nH]c(-c5ccnc(N)c5)c(C(C)C)c4c3)CC2)[nH]1 [Example 818, 4-(3-isopropyl-5-(1-((2-methyl-1H-imidazol-5-yl)methyl)piperidin-4-yl)-1H-indol-2-yl)pyridin-2-amine]	–	–	–	53.3	283	230
Cc1cc(-c2[nH]c3ccc(C4CCN(C(=O)C5(C)CCN(C)CC5)CC4)cc3c2C(C)C)cc(C)n1 [Example 176, (1,4-dimethylpiperidin-4-yl)(4-(2-(2,6-dimethylpyridin-4-yl)-3-isopropyl-1H-indol-5-yl)piperidin-1-yl)methanone]	21.7	11.1	663	–	–	–
Cc1cc(-c2[nH]c3ccc(C4CCNCC4)cc3c2C(C)C)c(N)cn1 [Example 10, 4-(3-isopropyl-5-(piperidin-4-yl)-1H-indol-2-yl)-6-methylpyridin-3-amine]	6.3	5.1	354	–	–	–
CCN1CCC(N2CCC(c3ccc4[nH]c(-c5ccnc(OC)c5)c(C(C)C)c4c3)CC2)CC1 [Example 801, 5-(1′-ethyl-[1,4′-bipiperidin]-4-yl)-3-isopropyl-2-(2-methoxypyridin-4-yl)-1H-indole]	218	561	740	–	–	–
Cc1cc(-c2[nH]c3ccc(C4CCN(C(=O)CN(C)CC(C)C)CC4)cc3c2C(C)C)cc(C)n1 [Example 355, 1-(4-(2-(2,6-dimethylpyridin-4-yl)-3-isopropyl-1H-indol-5-yl)piperidin-1-yl)-2-(isobutyl (methyl)amino)ethan-1-one]	34	8.8	1070	–	–	–
Cc1cc(-c2[nH]c3ccc(C4CCNCC4)cc3c2C(C)C)cc(F)n1 [Example 3, 2-(2-fluoro-6-methylpyridin-4-yl)-3-isopropyl-5-(piperidin-4-yl)-1H-indole]	3.8	1.8	1890	–	–	–
CCc1c(-c2ccnc(C(=O)OC)c2)[nH]c2ccc(C3CCN(C4CCN(CC(C)C)CC4)CC3)cc12 [Example 762, methyl 4-(3-ethyl-5-(1′-isobutyl-[1,4′-bipiperidin]-4-yl)-1H-indol-2-yl)picolinate]	14.3	708	223	–	–	–
Cc1cc(-c2[nH]c3ccc(C4CCN(CC(=O)N5CCCC(F)(F)C5)CC4)cc3c2C(C)C)cc(C)n1 [Example 285, 1-(3,3-difluoropiperidin-1-yl)-2-(4-(2-(2,6-dimethylpyridin-4-yl)-3-isopropyl-1H-indol-5-yl)piperidin-1-yl)ethan-1-one]	13.9	4	423	–	–	–
Cc1cc(-c2[nH]c3ccc(C4CCN(C(=O)CNC5(C)CC5)CC4)cc3c2C(C)C)cc(C)n1 [Example 360, 1-(4-(2-(2,6-dimethylpyridin-4-yl)-3-isopropyl-1H-indol-5-yl)piperidin-1-yl)-2-((1-methylcyclopropyl)amino)ethan-1-one]	15.8	4	795	–	–	–
Cc1cc(-c2[nH]c3ccc(C4CCN(C(=O)CN5CC(C(F)(F)F)C[C@@H]5CO)CC4)cc3c2C(C)C)cc(C)n1 (stereo partly drawn) [Example 404, 1-(4-(2-(2,6-dimethylpyridin-4-yl)-3-isopropyl-1H-indol-5-yl)piperidin-1-yl)-2-((2R)-2-(hydroxymethyl)-4-(trifluoromethyl)pyrrolidin-1-yl)ethan-1-one]	437	64.5	11300	–	–	–
CC(C)c1c(-c2ccnc(Cl)c2C#N)[nH]c2ccc(C3CCNCC3)cc12 [Example 36, 2-chloro-4-(3-isopropyl-5-(piperidin-4-yl)-1H-indol-2-yl)nicotinonitrile]	454	1270	4870	–	–	–
